Measured values taken from patent publication US12637513B2, “Method of treating cancer by administering an inhibitor of erythropoietin receptor activity comprising either erythropoietin receptor or erythropoietin protein” (ImmunEdge, Inc., priority 2022, dated 2026).

How the values were obtained:
[1] = system: Hypoxia-Inducible Factor (HIF); conditions: target cell empty; cited from earlier work
PHD2 = PHD2 (Homo sapiens, UniProt Q9GZT9); conditions: target PHD2; cited from earlier work
PHD1-3 = conditions: target PHD1-3; cited from earlier work
Glucosidase = conditions: target Glucosidase; cited from earlier work
[2] = system: CD11c^IntMHCII^HighXCR1^+ cDC1s / OT-II cells; experiment: In vitro Ag-specific Treg induction: pLN cDC1s loaded with Ova-thy cells and naïve OT-II cells; type: cell-based, mouse; conditions: untreated cells 25.5%
hetero-EPOR = target: T1, hetero-EPOR (Homo sapiens, UniProt P19235+P32927); conditions: cited from earlier work
T1 sequence (P19235 25-508): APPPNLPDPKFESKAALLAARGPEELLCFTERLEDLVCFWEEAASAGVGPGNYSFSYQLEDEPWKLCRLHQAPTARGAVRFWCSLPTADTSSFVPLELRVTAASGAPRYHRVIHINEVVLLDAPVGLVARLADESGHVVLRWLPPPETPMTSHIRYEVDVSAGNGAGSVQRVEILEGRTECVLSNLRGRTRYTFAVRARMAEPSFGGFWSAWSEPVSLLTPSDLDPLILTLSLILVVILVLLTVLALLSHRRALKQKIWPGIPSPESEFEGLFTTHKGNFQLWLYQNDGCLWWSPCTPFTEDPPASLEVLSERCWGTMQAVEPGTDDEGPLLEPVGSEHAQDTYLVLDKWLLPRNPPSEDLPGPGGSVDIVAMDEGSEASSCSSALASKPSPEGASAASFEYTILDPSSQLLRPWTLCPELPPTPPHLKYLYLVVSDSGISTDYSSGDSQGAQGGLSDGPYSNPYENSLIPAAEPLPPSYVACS
T1 sequence (P32927 17-897): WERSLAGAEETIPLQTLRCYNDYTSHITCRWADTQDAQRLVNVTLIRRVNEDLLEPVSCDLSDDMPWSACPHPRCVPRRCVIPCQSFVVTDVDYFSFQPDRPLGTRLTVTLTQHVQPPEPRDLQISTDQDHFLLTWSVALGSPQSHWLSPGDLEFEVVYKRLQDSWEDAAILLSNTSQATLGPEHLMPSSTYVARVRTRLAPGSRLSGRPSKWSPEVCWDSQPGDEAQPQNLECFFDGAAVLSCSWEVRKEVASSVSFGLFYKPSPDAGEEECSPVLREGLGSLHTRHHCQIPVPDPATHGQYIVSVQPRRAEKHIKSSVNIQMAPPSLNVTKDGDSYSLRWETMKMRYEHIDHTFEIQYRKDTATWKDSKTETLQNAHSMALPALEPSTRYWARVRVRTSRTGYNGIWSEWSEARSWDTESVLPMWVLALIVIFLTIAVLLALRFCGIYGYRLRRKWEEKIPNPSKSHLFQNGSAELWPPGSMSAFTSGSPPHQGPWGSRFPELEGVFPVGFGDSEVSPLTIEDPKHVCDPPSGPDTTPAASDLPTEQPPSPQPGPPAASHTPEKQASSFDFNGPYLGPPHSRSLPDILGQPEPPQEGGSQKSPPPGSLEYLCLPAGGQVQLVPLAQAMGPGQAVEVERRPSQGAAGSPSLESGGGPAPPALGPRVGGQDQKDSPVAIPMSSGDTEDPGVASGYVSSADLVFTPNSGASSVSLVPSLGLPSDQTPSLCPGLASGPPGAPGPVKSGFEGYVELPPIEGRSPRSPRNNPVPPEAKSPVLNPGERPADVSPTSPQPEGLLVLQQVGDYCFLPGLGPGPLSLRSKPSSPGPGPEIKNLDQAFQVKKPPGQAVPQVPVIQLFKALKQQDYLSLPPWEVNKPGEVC

Chain of PHD2 (Q9GZT9 whole entry): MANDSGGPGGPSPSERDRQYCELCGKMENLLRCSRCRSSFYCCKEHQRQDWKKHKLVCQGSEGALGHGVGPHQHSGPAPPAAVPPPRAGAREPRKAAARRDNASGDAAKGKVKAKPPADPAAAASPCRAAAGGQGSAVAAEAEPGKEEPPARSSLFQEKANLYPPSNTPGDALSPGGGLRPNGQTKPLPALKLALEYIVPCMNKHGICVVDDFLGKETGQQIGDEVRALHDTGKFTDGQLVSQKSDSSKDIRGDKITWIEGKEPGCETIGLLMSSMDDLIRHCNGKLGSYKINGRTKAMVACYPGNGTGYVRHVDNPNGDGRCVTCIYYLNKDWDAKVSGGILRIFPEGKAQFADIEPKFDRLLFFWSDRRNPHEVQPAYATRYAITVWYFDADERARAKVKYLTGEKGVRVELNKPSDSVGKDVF

Q: For CN1CCN(C(=O)COc2ccc(C34CC5CC(CC(C5)C3)C4)cc2)CC1 [IDF-11774], which IC50 [1] is on record?
A: 3650 nM

Q: For O=C(O)CNC(=O)c1c(O)c2ccccc2n(Cc2ccccc2)c1=O [IOX2], which IC50 (PHD2) is on record?
A: 21 nM

Q: For COc1ccc(C(NC(=O)c2cnc(-c3cccnn3)nc2O)c2ccc(OC)cc2)cc1 [MK-8617], which IC50 (PHD1-3) is on record?
A: 1 to 14 nM

Q: Which IC50 (PHD1-3) does the source give for O=C(O)CNC(=O)C1=C(O)CCN(Cc2ccc(Oc3ccc(Cl)cc3)nc2)C1=O [TP0463518] here?
A: 5.3 to 63 nM

Q: For O=c1cc(-c2ccc(O)cc2)oc2c([C@@H]3O[C@H](CO)[C@@H](O)[C@H](O)[C@H]3O)c(O)cc(O)c12 [Vitexin], which IC50 (Glucosidase) is on record?
A: 48 nM

Q: With “CEPO: chemically modified EPO analog in which the Lys residues are carbamylated [reference compound]” as the compound, how does the FoxP3 expressing cells [2] read?
A: 69.3%

Q: With QEQLERALNSS as the compound, how does the “activity for the hetero-EPOR” value (hetero-EPOR) read?
A: activates the hetero-EPOR
